# Tests used:
# Adenosine receptor A1 = target: T1, Adenosine receptor A1 (Homo sapiens, UniProt P30542)
# T1 sequence (P30542 whole entry): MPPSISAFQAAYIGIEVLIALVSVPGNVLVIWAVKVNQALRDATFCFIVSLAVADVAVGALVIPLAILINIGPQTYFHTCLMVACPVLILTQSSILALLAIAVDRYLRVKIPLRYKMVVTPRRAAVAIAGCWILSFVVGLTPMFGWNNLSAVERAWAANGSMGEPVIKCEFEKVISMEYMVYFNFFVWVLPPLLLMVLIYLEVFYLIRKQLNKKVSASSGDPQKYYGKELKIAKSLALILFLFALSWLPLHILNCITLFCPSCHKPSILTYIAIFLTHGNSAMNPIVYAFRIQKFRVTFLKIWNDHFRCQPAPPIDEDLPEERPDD
# [1] = target: T2, Gastrin/cholecystokinin type B receptor (Homo sapiens, UniProt P32239)
# T2 sequence (P32239 whole entry): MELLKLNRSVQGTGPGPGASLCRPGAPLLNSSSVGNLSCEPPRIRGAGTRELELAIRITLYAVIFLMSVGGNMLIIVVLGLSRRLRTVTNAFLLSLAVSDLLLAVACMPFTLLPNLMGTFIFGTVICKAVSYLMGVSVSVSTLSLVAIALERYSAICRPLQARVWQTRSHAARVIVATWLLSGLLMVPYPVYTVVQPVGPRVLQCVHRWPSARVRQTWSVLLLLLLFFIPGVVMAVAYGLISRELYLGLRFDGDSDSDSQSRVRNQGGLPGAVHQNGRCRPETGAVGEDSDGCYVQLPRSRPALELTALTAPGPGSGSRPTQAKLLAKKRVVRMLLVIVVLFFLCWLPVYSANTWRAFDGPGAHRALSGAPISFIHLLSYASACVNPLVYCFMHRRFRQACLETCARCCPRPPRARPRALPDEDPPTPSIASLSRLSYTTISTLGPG
# Histamine H1 receptor = Histamine H1 receptor (Homo sapiens, UniProt P35367)
# [2] = target: T3, Muscarinic acetylcholine receptor M2 (Homo sapiens, UniProt P08172); assay type: functional, cell-based
# T3 sequence (P08172 whole entry): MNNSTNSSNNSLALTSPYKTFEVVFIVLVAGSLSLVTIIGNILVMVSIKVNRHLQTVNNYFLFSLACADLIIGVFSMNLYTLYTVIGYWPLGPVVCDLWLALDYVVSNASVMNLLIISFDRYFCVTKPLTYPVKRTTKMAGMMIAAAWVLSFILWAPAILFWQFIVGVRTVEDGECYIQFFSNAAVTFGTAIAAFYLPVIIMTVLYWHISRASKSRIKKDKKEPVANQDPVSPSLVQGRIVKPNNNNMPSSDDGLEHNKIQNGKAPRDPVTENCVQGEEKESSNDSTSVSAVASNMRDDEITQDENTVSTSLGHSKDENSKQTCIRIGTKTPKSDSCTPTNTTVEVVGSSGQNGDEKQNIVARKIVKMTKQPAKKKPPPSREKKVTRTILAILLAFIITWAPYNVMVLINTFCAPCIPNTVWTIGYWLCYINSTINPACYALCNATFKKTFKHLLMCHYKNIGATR
# Endothelin-1 receptor = target: T4, Endothelin-1 receptor (Homo sapiens, UniProt P25101)
# T4 sequence (P25101 whole entry): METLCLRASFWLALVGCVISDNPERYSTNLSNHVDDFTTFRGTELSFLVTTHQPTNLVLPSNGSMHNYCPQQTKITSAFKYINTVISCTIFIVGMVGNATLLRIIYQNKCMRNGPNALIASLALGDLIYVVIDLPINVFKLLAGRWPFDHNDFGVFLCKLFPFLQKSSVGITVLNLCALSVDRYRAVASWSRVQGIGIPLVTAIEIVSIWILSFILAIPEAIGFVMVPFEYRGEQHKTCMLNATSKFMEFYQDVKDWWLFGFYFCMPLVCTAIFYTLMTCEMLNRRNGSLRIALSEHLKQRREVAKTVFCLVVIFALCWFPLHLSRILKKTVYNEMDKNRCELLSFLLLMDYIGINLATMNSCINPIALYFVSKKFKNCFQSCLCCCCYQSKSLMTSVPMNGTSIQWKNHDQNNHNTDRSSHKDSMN
# Progesterone receptor = target: T5, Progesterone receptor (Homo sapiens, UniProt P06401); assay type: functional
# T5 sequence (P06401 whole entry): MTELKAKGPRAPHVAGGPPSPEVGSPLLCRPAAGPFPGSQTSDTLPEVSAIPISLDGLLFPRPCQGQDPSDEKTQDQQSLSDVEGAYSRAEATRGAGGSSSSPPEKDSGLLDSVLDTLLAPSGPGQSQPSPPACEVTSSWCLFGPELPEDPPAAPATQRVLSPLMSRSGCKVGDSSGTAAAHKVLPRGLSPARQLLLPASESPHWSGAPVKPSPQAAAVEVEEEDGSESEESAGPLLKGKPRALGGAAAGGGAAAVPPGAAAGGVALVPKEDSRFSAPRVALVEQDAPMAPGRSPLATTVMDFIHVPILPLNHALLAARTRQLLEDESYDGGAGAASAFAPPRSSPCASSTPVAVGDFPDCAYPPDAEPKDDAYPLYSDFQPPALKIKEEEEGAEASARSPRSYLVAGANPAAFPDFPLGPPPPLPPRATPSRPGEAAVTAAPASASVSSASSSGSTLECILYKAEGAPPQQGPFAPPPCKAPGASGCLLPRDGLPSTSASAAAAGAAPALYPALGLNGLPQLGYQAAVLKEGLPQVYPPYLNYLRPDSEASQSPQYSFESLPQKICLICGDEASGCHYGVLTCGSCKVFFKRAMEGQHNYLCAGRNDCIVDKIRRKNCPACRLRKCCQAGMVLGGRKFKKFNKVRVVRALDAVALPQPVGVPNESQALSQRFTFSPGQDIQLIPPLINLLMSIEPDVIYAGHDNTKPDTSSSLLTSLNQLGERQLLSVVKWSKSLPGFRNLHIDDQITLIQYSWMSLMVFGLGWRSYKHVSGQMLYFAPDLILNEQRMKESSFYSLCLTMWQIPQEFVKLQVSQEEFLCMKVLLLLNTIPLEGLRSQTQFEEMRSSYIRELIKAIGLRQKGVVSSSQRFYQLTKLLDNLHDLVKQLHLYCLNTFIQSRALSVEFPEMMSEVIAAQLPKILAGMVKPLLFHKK
# Mu-type opioid receptor = Mu-type opioid receptor (Homo sapiens, UniProt P35372); assay: biochemical; assay type: functional
# Further: assay procedure not described here.
# Sequence of Mu-type opioid receptor (P35372 whole entry): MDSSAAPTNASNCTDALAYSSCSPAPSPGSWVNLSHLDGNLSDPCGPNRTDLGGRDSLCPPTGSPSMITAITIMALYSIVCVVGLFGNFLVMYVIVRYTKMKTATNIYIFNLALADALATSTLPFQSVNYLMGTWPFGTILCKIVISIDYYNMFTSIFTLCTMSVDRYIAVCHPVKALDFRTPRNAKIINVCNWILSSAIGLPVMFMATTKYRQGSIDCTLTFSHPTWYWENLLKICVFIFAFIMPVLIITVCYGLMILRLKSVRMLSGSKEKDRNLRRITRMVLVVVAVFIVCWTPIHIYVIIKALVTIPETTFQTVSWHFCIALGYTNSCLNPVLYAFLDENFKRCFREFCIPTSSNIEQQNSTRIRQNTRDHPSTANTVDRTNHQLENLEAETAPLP
# Sequence of Histamine H1 receptor (P35367 whole entry): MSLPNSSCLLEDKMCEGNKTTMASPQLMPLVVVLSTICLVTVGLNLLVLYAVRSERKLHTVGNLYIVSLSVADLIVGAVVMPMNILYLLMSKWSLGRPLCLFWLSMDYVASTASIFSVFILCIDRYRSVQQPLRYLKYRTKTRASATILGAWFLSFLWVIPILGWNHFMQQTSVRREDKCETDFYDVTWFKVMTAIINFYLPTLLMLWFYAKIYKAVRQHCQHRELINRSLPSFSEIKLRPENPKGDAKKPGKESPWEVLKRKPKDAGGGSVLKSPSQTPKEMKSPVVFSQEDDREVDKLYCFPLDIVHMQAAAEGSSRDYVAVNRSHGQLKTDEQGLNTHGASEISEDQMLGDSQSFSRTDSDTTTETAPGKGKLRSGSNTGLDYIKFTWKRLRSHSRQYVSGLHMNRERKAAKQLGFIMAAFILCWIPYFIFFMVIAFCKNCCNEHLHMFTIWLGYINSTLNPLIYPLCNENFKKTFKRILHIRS
SMILES,AC50 (Adenosine receptor A1) [µM],AC50 [1] [µM],AC50 (Histamine H1 receptor) [µM],AC50 [2] [µM],AC50 (Endothelin-1 receptor) [µM],AC50 (Progesterone receptor) [µM],AC50 (Mu-type opioid receptor) [µM]
CCCCCCCC(=O)N[C@H](CN1CCCC1)[C@H](O)c1ccc2c(c1)OCCO2,> 30,,,,,,
C[C@]12CC[C@H](O)CC1=CC[C@@H]1[C@@H]2CC[C@]2(C)C(c3cccnc3)=CC[C@@H]12 [ABIRATERONE],,> 30,> 10,> 10,,,
CN(C)C(=O)Oc1cc(OC(=O)N(C)C)cc(C(O)CNC(C)(C)C)c1 (stereo not drawn) [BAMBUTEROL],,> 30,,,> 30,> 30,
C[C@H]1C[C@H]2[C@@H]3CCC4=CC(=O)C=C[C@]4(C)[C@@]3(Cl)[C@@H](O)C[C@]2(C)[C@@]1(O)C(=O)CO [BECLOMETHASONE],,> 30,,,> 30,,
C[C@@H](O)[C@H]1C(=O)N2C(C(=O)[O-])=C(SC3Cn4cnc[n+]4C3)[C@H](C)[C@H]12 (stereo partly drawn) [BIAPENEM],> 30,,,,,,
Cc1nnc(SCC2=C(C(=O)O)N3C(=O)[C@@H](NC(=O)Cn4cc(Cl)c(=O)c(Cl)c4)[C@H]3SC2)s1 [CEFAZEDONE],> 30,,,,,,
CO[C@@]1(NC(=O)CSCC#N)C(=O)N2C(C(=O)O)=C(CSc3nnnn3C)CS[C@@H]21 [CEFMETAZOLE],> 30,,,> 30,,,> 30
NS(=O)(=O)c1cc(C2(O)NC(=O)c3ccccc32)ccc1Cl (stereo not drawn) [CHLORTHALIDONE],,,,> 10,,> 10,> 30
C[C@@H]1CCC[C@H](C)N1NC(=O)c1ccc(Cl)c(S(N)(=O)=O)c1 [CLOPAMIDE],,> 30,> 30,> 30,> 30,> 30,> 30
COc1ccc2c(c1)[C@]13CCCC[C@@H]1[C@H](C2)N(C)CC3 [DEXTROMETHORPHAN],,> 30,,> 10,> 30,,> 30
O=c1oc2ccccc2c(O)c1Cc1c(O)c2ccccc2oc1=O [DICUMAROL],,,,> 10,,> 10,> 30
O=C(CCCN1CC=C(n2c(=O)[nH]c3ccccc32)CC1)c1ccc(F)cc1 [DROPERIDOL],> 30,,,,,,
CCn1cc(C(=O)O)c(=O)c2cc(F)c(N3CCNCC3)nc21 [ENOXACIN],,> 30,,> 10,11.3,,
O=C(O)CSCC(=O)NC1CCSC1=O (stereo not drawn) [ERDOSTEINE],,> 30,> 30,> 30,> 30,> 30,> 30
COc1cccc(N(C)C(=S)Oc2ccc3c(c2)CCCC3)n1 [LIRANAFTATE],,> 30,> 30,> 30,> 30,> 30,> 30
Nc1nc(N)nc(Nc2ccc([As]3SCC(CO)S3)cc2)n1 (stereo not drawn) [MELARSOPROL],> 30,,,,,,
C#C[C@]1(O)CC[C@H]2[C@@H]3CCc4cc(OC)ccc4[C@H]3CC[C@@]21C [MESTRANOL],,,,> 10,,0.096,> 30
CCC(=O)O[C@@H]1CC(=O)O[C@H](C)C/C=C/C=C/[C@H](OC(C)=O)[C@H](C)C[C@H](CC=O)[C@H](O[C@@H]2O[C@H](C)[C@@H](O[C@H]3C[C@@](C)(OC(C)=O)[C@@H](OC(=O)CC)[C@H](C)O3)[C@H](N(C)C)[C@H]2O)[C@H]1OC [MIOCAMYCIN],> 30,,,,,,
N=C(N)c1ccc2cc(OC(=O)c3ccc(N=C(N)N)cc3)ccc2c1 [NAFAMOSTAT],,> 30,> 30,> 30,> 30,> 30,> 30
CNC(=O)Oc1ccc2c(c1)[C@]1(C)CCN(C)[C@@H]1N2C [PHYSOSTIGMINE],,> 30,,> 30,> 30,> 30,> 30
C1CNCCN1 [PIPERAZINE],> 30,,,,,,
O=C(O)c1cc(O)c2c3nc4ccccc4oc-3cc(=O)c2n1 [PIRENOXINE],,> 30,11,> 30,> 30,> 30,> 30
NS(=O)(=O)c1cc(C(=O)O)cc(N2CCCC2)c1Oc1ccccc1 [PIRETANIDE],,> 30,> 30,> 30,> 30,> 30,> 30
CNCCCC1c2ccccc2C=Cc2ccccc21 [PROTRIPTYLINE],,,,> 10,,> 10,
COCCCOc1ccnc(C[S+]([O-])c2nc3ccccc3[nH]2)c1C (stereo not drawn) [RABEPRAZOLE],> 30,> 30,,> 10,> 30,,
CC(C)=CCOc1ccc(/C=C/C(=O)c2ccc(OCC=C(C)C)cc2OCC(=O)O)cc1 [SOFALCONE],,> 30,> 30,> 30,> 30,> 30,> 30
O=C(CCCN1CCC2(CC1)C(=O)NCN2c1ccccc1)c1ccc(F)cc1 [SPIPERONE],,> 30,1.4,,> 30,> 30,
CCSc1ccc2c(c1)N(CCCN1CCN(C)CC1)c1ccccc1S2 [THIETHYLPERAZINE],,,0.17,> 30,,> 30,
CN(C)c1cc(NC(=O)CNC(C)(C)C)c(O)c2c1C[C@H]1C[C@H]3[C@H](N(C)C)C(O)=C(C(N)=O)C(=O)[C@@]3(O)C(O)=C1C2=O [TIGECYCLINE],,> 30,> 30,> 30,,> 30,> 30
OCCN1CCN(CC/C=C2/c3ccccc3Sc3ccc(Cl)cc32)CC1 [ZUCLOPENTHIXOL],,,0.028,> 10,,> 10,> 30

# From ChEMBL document CHEMBL5291721, “A preclinical secondary pharmacology resource illuminates target-adverse drug reaction associations of marketed drugs” (Nat Commun, 2023)
